Data from US7173129B2, “Sulfonamide-substituted chalcone derivatives and their use to treat diseases” (Athero Genics, Inc., priority 2003, dated 2007).

Legend:
VCAM-1 = experiment: In Vitro VCAM-1 Assay (TNF-α stimulated endothelial cells, cell-surface ELISA); type: cell-based; details: Endothelial cell, primary human aortic (HAEC) or pulmonary (HPAEC) endothelial cells, TNF-α 1 ng/ml, approximately 16 hours, ELISA OD 450 nm
Procedure: Cell Culture and compound dosing: Cultured primary human aortic (HAEC) or pulmonary (HPAEC) endothelial cells were obtained from Clonetics, Inc., and were used below passage 9. Cells were seeded in 96 well plates such that they would reach 90–95% confluency by the following day. On the following day the cells were stimulated with TNF-α (1 ng/ml) in the presence or absence of compounds dissolved in DMSO such that the final concentration of DMSO is 0.25% or less. To establish a dose curve for each compound, four concentrations in 2- to 5-fold increments were used. Cells were exposed to TNF-α and compounds for approximately 16 hours. The next day the cells were examined under microscope to score for visual signs of toxicity or cell stress.
Following 16 hr exposure to TNF-α and compound the media was discarded and the cells were washed once with Hanks Balanced Salt Solution (HBSS)/Phosphate buffered saline (PBS) (1:1). Primary antibodies against VCAM-1 (0.25 μg/ml in HBSS/PBS+5% FBS) were added and incubated for 30–60 minutes at 37° C. Cells were washed with HBSS/PBS three times, and secondary antibody Horse Radish Peroxidase (HRP)-conjugated goat anti-mouse IgG (1:500 in HBSS/PBS+5% FBS) were added and incubated for 30 minutes at 37° C. Cells were washed with HBSS/PBS four time and TMB substrate were added and incubated at room temperature in the dark until there was adequate development of blue color. The length of time of incubation was typically 5–15 minutes. 2N sulfuric acid was added to stop the color development and the data was collected by reading the absorbance on a BioRad ELISA plate reader at OD 450 nm. The results are expressed as IC50 values (the concentration (micromolar) of compound required to inhibit 50% of the maximal response of the control sample stimulated by TNF-α only).

| Structure (SMILES) | melting point | IC50 (VCAM-1; Homo sapiens, 16 h) | IC50 (VCAM-1) |
| --- | --- | --- | --- |
| COc1cc(OC)c(-c2cc3ccccc3[nH]2)cc1/C=C/C(=O)c1ccc(S(=O)(=O)NCCCn2ccnc2)cc1 [Example 50, N-(3-Imidazol-1-yl-propyl)-4-{3E-[5-(1H-indol-2-yl)-2,4-dimethoxy-phenyl]acryloyl}benzenesulfonamide] | 197 to 200 °C | > 10 µM | – |
| COc1cc(OC)c(-c2cccs2)cc1/C=C/C(=O)c1ccc(S(=O)(=O)NN2CCCCC2)cc1 [Example 22, 4-[3E-(2,4-Dimethoxy-5-thien-2-ylphenyl)acryloyl]-N-piperidin-1-ylbenzenesulfonamide] | 174 to 176 °C | > 10 µM | – |
| CONS(=O)(=O)c1ccc(C(=O)/C=C/c2cc(-c3cc4ccccc4n3C)c(OC)cc2OC)cc1 [Example 30, 4-{3E-[2,4-Dimethoxy-5-(1-methyl-1H-indol-2-yl)phenyl]acryloyl}-N-methoxybenzenesulfonamide] | 214 to 216 °C | < 10 µM | – |
| COc1cc(OC)c(-c2cccs2)cc1/C=C/C(=O)c1ccc(S(=O)(=O)NC(C)(C)C(=O)O)cc1 [Example 27, 2-{4-[3E-(2,4-Dimethoxy-5-thien-2-yl-phenyl)acryloyl]benzenesulfonylamino}-2-methylpropionic acid] | 205 °C (dec.) | < 10 µM | – |
| COc1cc(OCC(CO)CO)c(/C=C/C(=O)c2ccc(S(=O)(=O)Nc3cc(C)on3)cc2)cc1-c1cccs1 [Example 13, 4-{3E-[2-(3-Hydroxy-2-hydroxymethylpropoxy)-4-methoxy-5-thien-2-ylphenyl]acryloyl}-N-(5-methylisoxazol-3-yl)benzenesulfonamide] | 165 to 166 °C | > 10 µM | – |
| COc1cc(OC)c(-c2cc3ccccc3n2C)cc1/C=C/C(=O)c1ccc(S(=O)(=O)NO)cc1 [Example 34, 4-{3E-[2,4-Dimethoxy-5-(1-methyl-1H-indol-2-yl)phenyl]acryloyl}-N-hydroxybenzenesulfonamide] | > 260 °C | > 10 µM | – |
| COc1cc(OC)c(-c2cccs2)cc1/C=C/C(=O)c1ccc(S(=O)(=O)Nc2ccc(Cl)cn2)cc1 [Example 10, N-(5—Chloropyridin-2-yl)-4-[3E-(2,4-dimethoxy-5-thien-2-ylphenyl)acryloyl]benzenesulfonamide] | 228 to 229 °C | < 10 µM | – |
| COc1cc(OC)c(-c2cc3ccccc3n2C)cc1/C=C/C(=O)c1ccc(S(=O)(=O)NO[Si](C)(C)C(C)(C)C)cc1 [Example 33, 4-{3E-[2,4-Dimethoxy-5-(1-methyl-1H-indol-2-yl)phenyl]acryloyl}-N-(tert-butyldimethylsiloxy)benzenesulfonamide] | 129 to 131 °C | – | > 10 µM |
| COc1cc(OC)c(-c2cccs2)cc1/C=C/C(=O)c1ccc(S(=O)(=O)Nc2ccc(C(F)(F)F)cn2)cc1 [Example 12, 4-[3E-(2,4-Dimethoxy-5-thien-2-ylphenyl)acryloyl]-N-(5-trifluoromethylpyridin-2-yl)benzenesulfonamide] | 228 to 229 °C | < 10 µM | – |
| COc1cc(OC)c(-c2cc3ccccc3[nH]2)cc1/C=C/C(=O)c1ccc(S(=O)(=O)NC(C)=O)cc1 [Example 42, N-Acetyl-4-{3E-[5-(1H-indol-2-yl)-2,4-dimethoxyphenyl]acryloyl}benzenesulfonamide] | 218 to 220 °C | > 10 µM | – |
| COc1cc(OC)c(-c2cccs2)cc1/C=C/C(=O)c1ccc(S(=O)(=O)Nc2nccs2)cc1 [Example 8, 4-[3E-(2,4-Dimethoxy-5-thien-2-ylphenyl)acryloyl]-N-thiazol-2-ylbenzenesulfonamide] | 220 to 221 °C | < 5 µM | – |
| COc1cc(OC)c(-c2cccs2)cc1/C=C/C(=O)c1ccc(S(=O)(=O)NCCCn2ccnc2)cc1 [Example 23, 4-[3E-(2,4-Dimethoxy-5-thien-2-ylphenyl)acryloyl]-N-(3-imidazol-1-ylpropyl)benzenesulfonamide] | 160 to 162 °C | < 5 µM | – |
| COc1cc(OC)c(N2CCCC2)cc1/C=C/C(=O)c1ccc(S(=O)(=O)NCC(=O)O)cc1 [Example 56, {4-[3E-(2,4-Dimethoxy-5-pyrrolidin-1-ylphenyl)acryloyl]benzenesulfonylamino}acetic acid] | 155 to 158 °C | > 10 µM | – |
| COc1cc(OC)c(-c2cccs2)cc1/C=C/C(=O)c1ccc(S(=O)(=O)NCc2cccnc2)cc1 [Example 19, 4-[3E-(2,4-Dimethoxy-5-thien-2-ylphenyl)acryloyl]-N-pyridin-3-ylmethylbenzenesulfonamide] | 167 to 168 °C | < 5 µM | – |
| COc1cc(OC)c(-c2cc3ccccc3[nH]2)cc1/C=C/C(=O)c1ccc(S(=O)(=O)Nc2ccccn2)cc1 [Example 57, 4-{3E-[5-(1H-Indol-2-yl)-2,4-dimethoxyphenyl]acryloyl}-N-pyridin-2-ylbenzenesulfonamide] | 206 to 208 °C | < 5 µM | – |
| COc1cc(OC)c(-c2cccn2C)cc1/C=C/C(=O)c1ccc(S(=O)(=O)Nc2cc(C)on2)cc1 [Example 44, 4-{3E-[2,4-Dimethoxy-5-(1-methyl-1H-pyrrol-2-yl)phenyl]acryloyl}-N-(5-methyl-isoxazol-3-yl)benzenesulfonamide] | 113 to 115 °C | < 5 µM | – |
| COc1cc(OC)c(-c2cccs2)cc1/C=C/C(=O)c1ccc(S(=O)(=O)NCC(F)(F)F)cc1 [Example 24, 4-[3E-(2,4-Dimethoxy-5-thien-2-ylphenyl)acryloyl]-N-(2,2,2-trifluoroethyl)benzenesulfonamide] | 167 to 168 °C | < 5 µM | – |
| COc1cc(OC)c(-c2cccs2)cc1/C=C/C(=O)c1ccc(S(=O)(=O)Nc2ccc(F)cn2)cc1 [Example 11, 4-[3E-(2,4-Dimethoxy-5-thien-2-ylphenyl)acryloyl]-N-(5-fluoropyridin-2-yl)benzenesulfonamide] | 194 to 195 °C | < 5 µM | – |

Continued, in another order:

| melting point | IC50 (VCAM-1; Homo sapiens, 16 h) | Structure (SMILES) | IC50 (VCAM-1) |
| --- | --- | --- | --- |
| 215 °C (dec.) | < 5 µM | COc1cc(OC)c(-c2cccs2)cc1/C=C/C(=O)c1ccc(S(=O)(=O)Nc2ncccn2)cc1 [Example 3, 4-[3E-(2,4-Dimethoxy-5-thien-2-ylphenyl)acryloyl]-N-pyrimidin-2-ylbenzenesulfonamide] | – |
| 124 to 128 °C | < 5 µM | COc1cc(OC)c(N2CCCC2)cc1/C=C/C(=O)c1ccc(S(=O)(=O)Nc2ccccn2)cc1 [Example 52, 4-[3E-(2,4-Dimethoxy-5-pyrrolidin-1-yl-phenyl)-acryloyl]-N-pyridin-2-yl-benzenesulfonamide] | – |
| 202 to 203 °C | < 5 µM | COc1cc(OC)c(-c2cccs2)cc1/C=C/C(=O)c1ccc(S(=O)(=O)Nc2cc(C)on2)cc1 [Example 1, 4-[3E-(2,4-Dimethoxy-5-thien-2-yl-phenyl)acryloyl]-N-(5-methylisoxazol-3-yl)benzenesulfonamide] | – |
| 142 to 145 °C | < 5 µM | COc1cc(OC)c(-c2cccs2)cc1/C=C/C(=O)c1ccc(S(=O)(=O)Nc2cc[nH]n2)cc1 [Example 6, 4-[3E-(2,4-Dimethoxy-5-thien-2-ylphenyl)acryloyl]-N-(1H-pyrazol-3-yl)benzenesulfonamide] | – |
| 144 to 146 °C | < 5 µM | CCCC(=O)NS(=O)(=O)c1ccc(C(=O)/C=C/c2cc(-c3cc4ccccc4n3C)c(OC)cc2OC)cc1 [Example 37, N-Butyryl-4-{3E-[2,4-dimethoxy-5-(1-methyl-1H-indol-2-yl)phenyl]acryloyl}benzenesulfonamide] | – |
| 223 to 225 °C | < 5 µM | CCC(=O)NS(=O)(=O)c1ccc(C(=O)/C=C/c2cc(-c3cc4ccccc4[nH]3)c(OC)cc2OC)cc1 [Example 45, 4-{3E-[5-(1H-Indol-2-yl)-2,4-dimethoxyphenyl]acryloyl}-N-propionyl-benzenesulfonamide] | – |
| 164 to 165 °C | < 5 µM | COc1cc(OC)c(N2CCCC2)cc1/C=C/C(=O)c1ccc(S(=O)(=O)Nc2cc(C)on2)cc1 [Example 38, 4-[3E-(2,4-Dimethoxy-5-pyrrolidin-1-yl-phenyl)acryloyl]-N-(5-methyl-isoxazol-3-yl)benzenesulfonamide] | – |
| 178 to 182 °C | < 5 µM | COc1cc(OCCCO)c(/C=C/C(=O)c2ccc(S(=O)(=O)Nc3cc(C)on3)cc2)cc1-c1cccs1 [Example 39, 4-{3E-[2-(3-Hydroxy-propoxy)-4-methoxy-5-thien-2-ylphenyl]acryloyl}-N-(5-methylisoxazol-3-yl)benzenesulfonamide] | – |
